Laboratory results: patent US4874760A, “4,7-dihydroisothiazolo(5,4-b)pyridine derivatives and cardiovascular treating agents containing said derivatives” (Toa Eiyo, Ltd., priority 1987, dated 1989)
Like-named read-outs stand apart in the source and are kept apart here.

What was measured:
[1] = tested on: KCl-induced contraction of helical blood vessel specimen (artery); assay: Test on calcium antagonizing activity (KCl-induced contraction of helical blood vessel specimen); parameters: species or system rabbit; conditions: contraction height at 40 mM KCl taken as 100%, 10 minutes after test compound, 37° C., read-out: ED50 (concentration which inhibits the contraction height of the control to an extent of 50%)
Description: Female and male rabbits weighing 2 to 3 kg were used. They were anesthetized by intravenous injection of pentobarbital sodium, and sacrificed by bleeding from the femoral arteries. Immediately then, the artery was extracted from the chest, and a helical blood vessel specimen was prepared.

[2] = tested on: systolic blood pressure, spontaneously hypertensive rats; assay: Antihypertensive activity test; format: in vivo, rat (male spontaneously hypertensive); conditions: oral
Excerpt: Variations in systolic blood pressure were periodically measured by a programmed electrosphygmomanometer-type blood pressure measuring device (NARCO, PE-300).

CCOC(=O)C1=C(C)Nc2snc(CCN3CCN(c4ccccc4)CC3)c2C1c1cccc([N+](=O)[O-])c1 (single isomer, unassigned; (+)) [Ig, (+)-ethyl 3-[2-(4-phenyl-1-piperazinyl)ethyl]-6-methyl-4-(3-nitrophenyl)-4,7-dihydroisothiazolo[5,4-b]pyridine-5-carboxylate]
IC50 ([1]; 10 min): > 300 nM

CCOC(=O)C1=C(C)Nc2snc(CCN3CCN(c4ccccc4)CC3)c2C1c1cccc([N+](=O)[O-])c1 (single isomer, unassigned; (-)) [Ih, (-)-ethyl 3-[2-(4-phenyl-1-piperazinyl)ethyl]-6-methyl-4-(3-nitrophenyl)-4,7-dihydroisothiazolo[5,4-b]pyridine-5-carboxylate]
IC50 ([1]; 10 min): 25 nM | Systolic blood pressure (maximum variation) ([2]; 1 mg/kg): -36 mmHg | Systolic blood pressure (maximum variation) ([2]; 3 mg/kg): -93 mmHg | Systolic blood pressure (maximum variation) ([2]; 10 mg/kg): -137 mmHg

CCOC(=O)C1=C(C)Nc2snc(CN(C)CCc3ccc(OC)c(OC)c3)c2C1c1cccc([N+](=O)[O-])c1 (centres unmarked) [Ia, ethyl 3-[N-(2-(3,4-dimethoxyphenyl)ethyl)-N-methylaminomethyl]-6-methyl-4-(3-nitrophenyl)-4,7-dihydroisothiazolo[5,4-b]pyridine-5-carboxylate]
IC50 ([1]; Oryctolagus cuniculus, 10 min): 60 nM | Systolic blood pressure (maximum variation) ([2]; 1 mg/kg): -6 mmHg | Systolic blood pressure (maximum variation) ([2]; 3 mg/kg): -26 mmHg | Systolic blood pressure (maximum variation) ([2]; 10 mg/kg): -82 mmHg | Systolic blood pressure (maximum variation) ([2]; 30 mg/kg): -119 mmHg

CCOC(=O)C1=C(C)Nc2snc(CN(C)CCCOc3cccc(OC)c3)c2C1c1cccc([N+](=O)[O-])c1 (centres unmarked) [Ib, ethyl 3-[N-(3-(3-methoxyphenoxy)propyl)-N-methylaminomethyl]-6-methyl-4-(3-nitrophenyl)-4,7-dihydroisothiazolo[5,4-b]pyridine-5-carboxylate]
IC50 ([1]; Oryctolagus cuniculus, 10 min): 62 nM | Systolic blood pressure (maximum variation) ([2]; 3 mg/kg): -30 mmHg | Systolic blood pressure (maximum variation) ([2]; 10 mg/kg): -76 mmHg | Systolic blood pressure (maximum variation) ([2]; 30 mg/kg): -108 mmHg

COc1ccc(CCN(C)Cc2nsc3c2C(c2cccc([N+](=O)[O-])c2)C(C(=O)OCCN(C)Cc2ccccc2)=C(C)N3)cc1OC (centres unmarked) [Ic, 2-(N-benzyl-N-methylamino)ethyl 3-[N-(2-(3,4-dimethoxyphenyl)ethyl)-N-methylaminomethyl]-6-methyl-4-(3-nitrophenyl)-4,7-dihydroisothiazolo[5,4-b]pyridine-5-carboxylate]
IC50 ([1]; Oryctolagus cuniculus, 10 min): 225 nM | Systolic blood pressure (maximum variation) ([2]; 3 mg/kg): -37 mmHg | Systolic blood pressure (maximum variation) ([2]; 10 mg/kg): -92 mmHg | Systolic blood pressure (maximum variation) ([2]; 30 mg/kg): -135 mmHg

CC1=C(C(=O)OCCN(C)Cc2ccccc2)C(c2cccc([N+](=O)[O-])c2)c2c(CN3CCN(c4ccc(F)cc4)CC3)nsc2N1 (centres unmarked) [Id, 2-(N-benzyl-N-methylamino)ethyl 3-[4-(4-fluorophenyl)-1-piperazinylmethyl]-6-methyl-4-(3-nitrophenyl)-4,7-dihydroisothiazolo[5,4-b]pyridine-5-carboxylate]
IC50 ([1]; Oryctolagus cuniculus, 10 min): > 300 nM | Systolic blood pressure (maximum variation) ([2]; 1 mg/kg): -30 mmHg | Systolic blood pressure (maximum variation) ([2]; 3 mg/kg): -65 mmHg | Systolic blood pressure (maximum variation) ([2]; 10 mg/kg): -132 mmHg | Systolic blood pressure (maximum variation) ([2]; 30 mg/kg): -142 mmHg

CCOC(=O)C1=C(C)Nc2snc(CCN3CCN(c4ccccc4)CC3)c2C1c1cccc([N+](=O)[O-])c1 (centres unmarked) [Ie, ethyl 3-[2-(4-phenyl-1-piperazinyl)ethyl]-6-methyl-4-(3-nitrophenyl)-4,7-dihydroisodithiazolo[5,4-b]pyridine-5-carboxylate]
IC50 ([1]; Oryctolagus cuniculus, 10 min): 33 nM | Systolic blood pressure (maximum variation) ([2]; 1 mg/kg): -41 mmHg | Systolic blood pressure (maximum variation) ([2]; 3 mg/kg): -51 mmHg | Systolic blood pressure (maximum variation) ([2]; 10 mg/kg): -101 mmHg

CCOC(=O)C1=C(C)Nc2snc(CCN3CCN(c4ccc(F)cc4)CC3)c2C1c1cccc([N+](=O)[O-])c1 (centres unmarked) [If, ethyl 3-[2-(4-(4-fluorophenyl)-1-piperazinyl)ethyl]-6-methyl-4-(3-nitrophenyl)-4,7-dihyhdroisothiazolo[5,4-b]pyridine-5-carboxylate]
IC50 [1]: 63.8 nM | Systolic blood pressure (maximum variation) ([2]; 1 mg/kg): -47 mmHg | Systolic blood pressure (maximum variation) ([2]; 3 mg/kg): -54 mmHg | Systolic blood pressure (maximum variation) ([2]; 10 mg/kg): -102 mmHg

COC(=O)C1=C(C)NC(C)=C(C(=O)OC)C1c1ccccc1[N+](=O)[O-] [Nifedipine, reference compound]
IC50 ([1]; Oryctolagus cuniculus, 10 min): 19.6 nM | Systolic blood pressure (maximum variation) ([2]; 1 mg/kg): -29 mmHg | Systolic blood pressure (maximum variation) ([2]; 3 mg/kg): -42 mmHg | Systolic blood pressure (maximum variation) ([2]; 10 mg/kg): -71 mmHg
